Data reported in US11932595B2, “VDR-silent vitamin D derivative as inhibitors of SREBP and pharmaceutical use thereof” (KYOTO UNIVERSITY, priority 2020, dated 2024).
Entries after “also recorded” stand apart in the source; their conditions may differ.

Experiments:
[1] = target: T1, endogenous SREBP-2 and SCAP (Cricetulus griseus, UniProt P97260); assay: Western blot analysis of endogenous SREBP-2 and SCAP in CHO-K1 cells; assay type: cell-based; conditions: FIG. 6B; for protein levels of precursor and mature forms of SREBP-2 and of SCAP: CHO-K1 cells, lipid-free medium, 24 h
T1 construct: Western blot analysis of endogenous SREBP-2 and SCAP; endogenous in cells; host or cells: CHO-K1
T1 sequence (P97260 1-1276): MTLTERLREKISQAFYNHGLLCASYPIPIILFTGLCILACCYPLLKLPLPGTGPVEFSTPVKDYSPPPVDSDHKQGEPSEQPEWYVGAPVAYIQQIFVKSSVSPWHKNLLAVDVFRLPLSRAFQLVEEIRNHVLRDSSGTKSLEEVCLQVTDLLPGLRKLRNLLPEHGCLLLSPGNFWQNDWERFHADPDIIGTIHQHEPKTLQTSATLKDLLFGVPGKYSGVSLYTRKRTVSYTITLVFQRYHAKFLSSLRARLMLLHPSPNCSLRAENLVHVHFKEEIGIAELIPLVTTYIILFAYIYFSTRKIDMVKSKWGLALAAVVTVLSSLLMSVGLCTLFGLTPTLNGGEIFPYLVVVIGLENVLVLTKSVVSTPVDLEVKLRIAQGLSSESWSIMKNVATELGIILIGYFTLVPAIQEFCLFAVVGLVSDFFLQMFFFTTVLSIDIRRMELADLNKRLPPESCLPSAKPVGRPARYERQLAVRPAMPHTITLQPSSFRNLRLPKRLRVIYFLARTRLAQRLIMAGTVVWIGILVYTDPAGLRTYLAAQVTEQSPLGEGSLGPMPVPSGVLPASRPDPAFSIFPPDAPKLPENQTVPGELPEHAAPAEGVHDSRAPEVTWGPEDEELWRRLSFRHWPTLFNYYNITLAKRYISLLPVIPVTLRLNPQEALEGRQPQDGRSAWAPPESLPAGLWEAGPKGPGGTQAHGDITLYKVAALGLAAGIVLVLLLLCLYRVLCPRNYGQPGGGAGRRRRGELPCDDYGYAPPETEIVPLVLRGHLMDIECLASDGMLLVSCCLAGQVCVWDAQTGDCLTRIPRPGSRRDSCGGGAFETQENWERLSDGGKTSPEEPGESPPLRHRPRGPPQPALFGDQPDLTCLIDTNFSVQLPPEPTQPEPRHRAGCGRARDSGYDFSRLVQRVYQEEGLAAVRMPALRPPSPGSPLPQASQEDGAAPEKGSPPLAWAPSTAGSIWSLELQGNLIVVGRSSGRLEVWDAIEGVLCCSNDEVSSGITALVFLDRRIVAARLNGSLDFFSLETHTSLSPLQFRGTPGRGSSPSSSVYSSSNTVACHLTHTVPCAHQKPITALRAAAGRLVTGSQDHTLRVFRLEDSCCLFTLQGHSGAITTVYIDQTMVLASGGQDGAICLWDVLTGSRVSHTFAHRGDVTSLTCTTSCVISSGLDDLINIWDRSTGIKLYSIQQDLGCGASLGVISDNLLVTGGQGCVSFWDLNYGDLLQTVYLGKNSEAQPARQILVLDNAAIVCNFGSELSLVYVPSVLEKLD
T1 sequence (Q60429 1-1139 partner): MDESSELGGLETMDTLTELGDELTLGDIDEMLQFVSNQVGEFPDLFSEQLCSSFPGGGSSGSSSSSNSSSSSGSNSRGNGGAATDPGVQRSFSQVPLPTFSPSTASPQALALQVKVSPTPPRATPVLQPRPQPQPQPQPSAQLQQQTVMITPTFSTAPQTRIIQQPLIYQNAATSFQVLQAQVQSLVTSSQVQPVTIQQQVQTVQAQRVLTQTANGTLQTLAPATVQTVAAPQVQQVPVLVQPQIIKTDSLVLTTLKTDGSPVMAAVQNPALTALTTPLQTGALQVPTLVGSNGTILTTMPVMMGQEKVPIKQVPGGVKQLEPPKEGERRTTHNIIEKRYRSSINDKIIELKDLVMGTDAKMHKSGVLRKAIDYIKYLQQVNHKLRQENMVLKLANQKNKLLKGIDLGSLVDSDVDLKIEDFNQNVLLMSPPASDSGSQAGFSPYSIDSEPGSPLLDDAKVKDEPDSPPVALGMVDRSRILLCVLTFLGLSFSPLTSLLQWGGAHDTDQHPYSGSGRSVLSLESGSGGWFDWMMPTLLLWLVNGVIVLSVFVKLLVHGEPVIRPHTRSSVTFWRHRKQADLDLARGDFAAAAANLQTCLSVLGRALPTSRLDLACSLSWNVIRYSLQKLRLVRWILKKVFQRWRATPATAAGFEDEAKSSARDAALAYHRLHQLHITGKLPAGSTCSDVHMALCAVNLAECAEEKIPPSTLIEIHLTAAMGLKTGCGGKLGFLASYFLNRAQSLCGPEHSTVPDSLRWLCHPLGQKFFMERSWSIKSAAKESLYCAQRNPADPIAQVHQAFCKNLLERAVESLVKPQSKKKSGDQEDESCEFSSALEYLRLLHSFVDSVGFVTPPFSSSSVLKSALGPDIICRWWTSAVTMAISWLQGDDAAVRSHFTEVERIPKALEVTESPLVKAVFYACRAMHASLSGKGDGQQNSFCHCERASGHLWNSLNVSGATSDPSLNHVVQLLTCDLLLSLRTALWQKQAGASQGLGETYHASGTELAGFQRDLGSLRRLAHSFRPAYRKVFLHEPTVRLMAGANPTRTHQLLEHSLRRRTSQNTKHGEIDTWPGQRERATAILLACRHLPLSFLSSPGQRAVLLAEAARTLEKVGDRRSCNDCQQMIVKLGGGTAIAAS
Description: 25(OH)D3 and KK-052 decreased the protein levels of both precursor and mature forms of SREBP-2, as well as SCAP. (CHO-K1 cells were treated with the compound in a lipid-free medium for 24 h); (C) Western blot analysis of SCAP: CHO-K1 cells expressing FLAG-tagged SCAP were treated with the compound in a lipid-free medium for 24 h and immunoblots were performed with an anti-FLAG antibody.
The effects of KK-052 (50) on SREBP and SCAP by gene reporter assay and Western blot analysis were verified. […] Overall, the results were consistent with the effects of KK-052 in vivo.

[2] = tested on: SREBP-responsive genes; conditions: low μM dose, cultured cells; cited from earlier work

effect on endogenous SREBP and SCAP levels at 1 μM ([1]; 1 μM concentration)	SMILES	protein levels of precursor and mature forms of SREBP-2 and of SCAP [1]	cellular lipogenesis [2]	protein levels of precursor and mature forms of SREBP-2 and of SCAP ([1]; listed as KK-052)
	C=C1CC[C@H](O)C/C1=C/C=C1\CCC[C@]2(C)[C@@H]([C@H](C)CCCC(C)(C)O)CC[C@@H]12 [25(OH)D3, 25-hydroxyvitamin D3, reference compound]	decreased	inhibits cellular lipogenesis	
less evident	C[C@H](CCC(F)(F)C(C)(C)O)[C@H]1CC[C@H]2/C(=C/Cn3nnnc3-c3ccccc3)CCC[C@]12C [Compound 50, (R)-3,3-Difluoro-2-methyl-6-{(1R,3aS,7aR,E)-7a-methyl-4-[2-(5-phenyl-1H-tetrazol-1-yl)ethylidene]octahydro-1H-inden-1-yl}heptan-2-ol]			decreased; also recorded: decreasing the level
